Assay results as given in US20130266605A1, “PEPTIDE INHIBITORS OF CD40L SIGNALING AND USES THEREFOR” (PHYLOGICA LIMITED, priority 2010, published 2013).
Where two headings read alike, the source gives them in different places. Positions of bridges follow the written chain, without caps; N, C: chain ends. Non-standard residues stand in square brackets, D forms with d. Residues, ends and D or L forms follow the SMILES beside them. Chains are numbered I, II in the order given. No end group written: not given here. AEEA = NCCOCCOCC(=O)O

What was measured:
[1] = molecular target: CD40L-induced CD86 expression on primary B-cells (UniProt P29965); experiment: Inhibition of CD40L-induced CD86 expression on primary B-cells (FACS); settings: for inhibition of CD40L-induced CD86 expression on primary B-cells: in words
Procedure: In one example, the ability of a peptide, analog or derivative of the invention to inhibit or reduce or delay expression of CD86 on primary B-cells was determined in the presence and absence of the peptides, analogs and derivatives of the invention. In particular, CD86 expression was determined by FACS.
As a control in these assays, LPS-induced expression of CD86 mediated by the Toll-like receptors TLR 2/4, and TNFα-induced cytoxicity, were also assayed to exclude effects mediated by ligands other than CD40L.

[2] = molecular target: T1, CD40L-CD40 interaction (Homo sapiens, UniProt P29965); experiment: Chemiluminescent proximity assay (Alphascreen); type: binding; settings: for inhibition of the interaction between CD40L and CD40: in words, Alphascreen proximity assay
T1 sequence (P29965 113-261 limits assumed): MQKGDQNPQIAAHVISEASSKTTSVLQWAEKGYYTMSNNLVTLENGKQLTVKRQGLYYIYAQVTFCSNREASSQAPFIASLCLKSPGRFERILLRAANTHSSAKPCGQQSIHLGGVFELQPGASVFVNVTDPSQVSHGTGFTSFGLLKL
Procedure: In one example, the Alphascreen assay (PerkinElmer) was employed according to the manufacturer's instructions.
Homodimers and heterodimers were also assayed by chemiluminescent proximity assay for their ability to inhibit CD40L-CD40 interaction.

[3] = molecular target: T2, CD40L (Homo sapiens, UniProt P29965); experiment: Octet Red label-free association/dissociation analysis; type: binding; settings: base peptides; equilibrium dissociation constant; read-out: KD
T2 sequence (P29965 113-261 limits assumed): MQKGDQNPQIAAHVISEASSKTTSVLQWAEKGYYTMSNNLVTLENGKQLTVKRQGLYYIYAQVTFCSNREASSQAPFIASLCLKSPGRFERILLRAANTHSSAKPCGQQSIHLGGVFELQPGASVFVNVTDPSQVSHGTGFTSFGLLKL
Procedure: Label-free analyses of the associations and dissociations of base peptides and serine derivatives of base peptides with the CD40L target protein were performed using the Octet Red system (ForteBio, Inc., USA) according to the manufacturer's instructions. These analyses provide kinetic constants of CD40L binding activity, especially the association rate constant (Ka) and dissociation rate constant ([…]) of binding, i.e., measures of the “on” and “off” rates of the peptides relative to soluble CD40L.

[4] = molecular target: T3, CD40 ligand (UniProt P29965 108-261, limits assumed); experiment: Alphascreen, unmodified peptide, inhibition of CD40L/CD40-Fc
T3 construct: Used immobilised, soluble, or biotinylated on streptavidin beads; also called CD154; soluble CD40L
T3 sequence (looked up): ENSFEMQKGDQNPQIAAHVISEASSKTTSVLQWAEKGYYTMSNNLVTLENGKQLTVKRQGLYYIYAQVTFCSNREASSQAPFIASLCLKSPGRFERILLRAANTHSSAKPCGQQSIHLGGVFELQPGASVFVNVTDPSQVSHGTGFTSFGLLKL

[5] = PEGylated chiral (retro-inverted) analog, read-out: EC50(PEGylated) CD40L/CD40-Fc/BAF617
[6] = read-out: EC50 PEGylated peptide, PEGylated monomeric peptide

Chain of CD40L-induced CD86 expression on primary B-cells (P29965 whole entry): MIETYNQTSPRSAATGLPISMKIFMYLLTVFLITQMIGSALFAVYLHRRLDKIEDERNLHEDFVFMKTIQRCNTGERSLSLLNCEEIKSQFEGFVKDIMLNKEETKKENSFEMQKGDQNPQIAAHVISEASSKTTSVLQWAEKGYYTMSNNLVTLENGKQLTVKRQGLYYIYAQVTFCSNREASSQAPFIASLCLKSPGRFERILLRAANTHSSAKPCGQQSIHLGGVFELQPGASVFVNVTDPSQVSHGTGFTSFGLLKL
Chain of CD40L-induced CD86 expression on primary B-cells (P25942 21-277 partner): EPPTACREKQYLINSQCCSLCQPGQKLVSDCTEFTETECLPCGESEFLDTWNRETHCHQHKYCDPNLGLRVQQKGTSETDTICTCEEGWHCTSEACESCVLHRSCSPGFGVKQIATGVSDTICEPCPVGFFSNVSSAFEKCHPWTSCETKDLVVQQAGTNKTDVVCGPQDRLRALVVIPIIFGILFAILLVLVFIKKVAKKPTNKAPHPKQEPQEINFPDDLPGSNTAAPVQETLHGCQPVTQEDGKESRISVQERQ

CC[C@H](C)[C@H](NC(=O)[C@H](CO)NC(=O)[C@H](Cc1ccccc1)NC(=O)[C@@H](NC(=O)[C@H](CC(N)=O)NC(=O)[C@H](CCCCN)NC(=O)[C@@H](NC(=O)[C@H](CO)NC(=O)[C@H](Cc1ccccc1)NC(=O)[C@@H]1CCCN1C(=O)[C@H](Cc1c[nH]cn1)NC(=O)COCCOCCNC(=O)[C@@H](N)CSSC[C@H](N)C(=O)NCCOCCOCC(=O)N[C@@H](Cc1c[nH]cn1)C(=O)N1CCC[C@H]1C(=O)N[C@@H](Cc1ccccc1)C(=O)N[C@@H](CO)C(=O)N[C@H](C(=O)N[C@@H](CCCCN)C(=O)N[C@@H](CC(N)=O)C(=O)N[C@H](C(=O)N[C@@H](Cc1ccccc1)C(=O)N[C@@H](CO)C(=O)N[C@H](C(=O)N[C@@H](Cc1c[nH]c2ccccc12)C(=O)N[C@@H](CC(N)=O)C(=O)N[C@@H](Cc1ccccc1)C(=O)N[C@@H](Cc1ccccc1)C(=O)N[C@@H](CO)C(=O)N[C@H](C(=O)N[C@@H](Cc1ccc(O)cc1)C(=O)O)C(C)C)[C@@H](C)CC)C(C)C)[C@@H](C)CC)[C@@H](C)CC)C(C)C)C(=O)N[C@@H](Cc1c[nH]c2ccccc12)C(=O)N[C@@H](CC(N)=O)C(=O)N[C@@H](Cc1ccccc1)C(=O)N[C@@H](Cc1ccccc1)C(=O)N[C@@H](CO)C(=O)N[C@H](C(=O)N[C@@H](Cc1ccc(O)cc1)C(=O)O)C(C)C [Cys_M1_6S homodimer] (I: H-C[AEEA]HPFSIKNVFSIWNFFSVY-OH / II: H-C[AEEA]HPFSIKNVFSIWNFFSVY-OH; disulfide I:1-II:1; C-terminus assumed)
inhibition of CD40L-induced CD86 expression on primary B-cells [1]: enhanced inhibition
inhibition of the interaction between CD40L and CD40 ([2]; listed as 6-6 dimer): enhanced inhibition
inhibition of the interaction between CD40L and CD40 ([2]; listed as homodimer of the Phylomer peptide M1—6): inhibition

CC[C@H](C)[C@H](NC(=O)[C@H](CO)NC(=O)[C@H](Cc1c[nH]c2ccccc12)NC(=O)[C@H](CCC(N)=O)NC(=O)[C@@H](NC(=O)[C@@H]1CCCN1C(=O)[C@H](Cc1ccccc1)NC(=O)[C@H](Cc1ccccc1)NC(=O)[C@H](Cc1c[nH]c2ccccc12)NC(=O)CNC(=O)[C@H](Cc1ccc(O)cc1)NC(=O)[C@H](CCCCN)NC(=O)[C@H](CC(C)C)NC(=O)[C@@H](NC(=O)[C@H](Cc1c[nH]cn1)NC(=O)[C@H](CO)NC(=O)[C@H](CCCNC(=N)N)NC(=O)[C@H](Cc1ccc(O)cc1)NC(=O)[C@@H]1CCCN1C(=O)[C@@H](NC(=O)[C@H](Cc1ccccc1)NC(=O)[C@@H]1CCCN1C(=O)[C@@H](N)CC(C)C)C(C)C)C(C)C)C(C)C)C(=O)N[C@@H](Cc1ccccc1)C(=O)N[C@@H](C)C(=O)N[C@H](C(=O)N[C@@H](CC(C)C)C(=O)N1CCC[C@H]1C(=O)N[C@@H](Cc1ccccc1)C(=O)N[C@@H](CCC(N)=O)C(=O)N[C@@H](Cc1ccc(O)cc1)C(=O)N[C@@H](CC(C)C)C(=O)N[C@@H](Cc1c[nH]cn1)C(=O)N[C@@H](CCCNC(=N)N)C(=O)N[C@@H](CS)C(=O)N[C@@H](CCCNC(=N)N)C(=O)O)C(C)C [CD40L M1_18] (H-LPFVPYRSHVLKYGWFFPVQWSIFAVLPFQYLHRCR-OH; N-terminus and C-terminus assumed)
inhibition of CD40L-induced CD86 expression on primary B-cells [1]: concentration-dependent inhibition

AQWWHHRFSFLGAIQFFERGAAD [CD40L M1_30rd]
EC50 [2, 5]: 24 nM

YVSFFNWISFVNKISFPH [CD40L M1_6rd]
EC50 [2, 5]: 20 nM

CC[C@@H](C)[C@@H](NC(=O)[C@@H](Cc1ccccc1)NC(=O)[C@@H](C)NC(=O)[C@H](NC(=O)[C@@H](CC(C)C)NC(=O)[C@H]1CCCN1C(=O)[C@@H](Cc1ccccc1)NC(=O)[C@@H](CCC(N)=O)NC(=O)[C@@H](Cc1ccc(O)cc1)NC(=O)[C@@H](CC(C)C)NC(=O)[C@@H](Cc1c[nH]cn1)NC(=O)[C@@H](CCCNC(=N)N)NC(=O)[C@@H](CS)NC(=O)[C@H](N)CCCNC(=N)N)C(C)C)C(=O)N[C@H](CO)C(=O)N[C@H](Cc1c[nH]c2ccccc12)C(=O)N[C@H](CCC(N)=O)C(=O)N[C@@H](C(=O)N1CCC[C@@H]1C(=O)N[C@H](Cc1ccccc1)C(=O)N[C@H](Cc1ccccc1)C(=O)N[C@H](Cc1c[nH]c2ccccc12)C(=O)NCC(=O)N[C@H](Cc1ccc(O)cc1)C(=O)N[C@H](CCCCN)C(=O)N[C@H](CC(C)C)C(=O)N[C@@H](C(=O)N[C@H](Cc1c[nH]cn1)C(=O)N[C@H](CO)C(=O)N[C@H](CCCNC(=N)N)C(=O)N[C@H](Cc1ccc(O)cc1)C(=O)N1CCC[C@@H]1C(=O)N[C@@H](C(=O)N[C@H](Cc1ccccc1)C(=O)N1CCC[C@@H]1C(=O)N[C@H](CC(C)C)C(=O)O)C(C)C)C(C)C)C(C)C [CD40L M1_18rd] (H-[dR][dC][dR][dH][dL][dY][dQ][dF][dP][dL][dV][dA][dF][dI][dS][dW][dQ][dV][dP][dF][dF][dW]G[dY][dK][dL][dV][dH][dS][dR][dY][dP][dV][dF][dP][dL]-OH; N-terminus and C-terminus assumed)
inhibition of CD40L-induced CD86 expression on primary B-cells [1]: enhanced inhibition

LDLFGDFNGLPEGADRTEFYQHEGHWQNRMILGDSLQVMASLAEREGLRGKVQCIYFDPPYGIKFN [CD40L M9_763]
Kd [3]: 27 nM

RVWNSFWLHIGGRQVGSPVFLSYFRNRVWRP [CD40L M1_50rd]
EC50 [2, 5]: 568 nM

FYLYDRRFSSYFRFLFFLNYRPP [CD40L M1_9rd]
EC50 [2, 5]: 14 nM

CC[C@H](C)[C@H](NC(=O)[C@H](CS)NC(=O)[C@H](Cc1ccccc1)NC(=O)[C@@H](NC(=O)[C@H](CC(N)=O)NC(=O)[C@H](CCCCN)NC(=O)[C@@H](NC(=O)[C@H](CO)NC(=O)[C@H](Cc1ccccc1)NC(=O)[C@@H]1CCCN1C(=O)[C@@H](N)Cc1c[nH]cn1)[C@@H](C)CC)C(C)C)C(=O)N[C@@H](Cc1c[nH]c2ccccc12)C(=O)N[C@@H](CC(N)=O)C(=O)N[C@@H](Cc1ccccc1)C(=O)N[C@@H](Cc1ccccc1)C(=O)N[C@@H](CO)C(=O)N[C@H](C(=O)N[C@@H](Cc1ccc(O)cc1)C(=O)O)C(C)C [CD40L M1_6] (H-HPFSIKNVFCIWNFFSVY-OH; N-terminus and C-terminus assumed)
inhibition of the interaction between CD40L and CD40 [2]: inhibition

FHRMYVILQIIWFITPRWTFP [CD40L M7_206rd]
EC50 [1, 6]: 2000 nM
EC50 [2, 5]: 12 nM

I: H-C[AEEA]PPRYNLFFLFRFYSSFRRDYLYF / II: H-C[AEEA]HPFSIKNVFSIWNFFSVY (disulfide I:1-II:1) [Cys_M1_6S-Cys_M1_9S heterodimer]
inhibition of CD40L-induced CD86 expression on primary B-cells [1]: enhanced inhibition
inhibition of the interaction between CD40L and CD40 ([2]; listed as 6-9 dimer): enhanced inhibition
inhibition of the interaction between CD40L and CD40 ([2]; listed as 6-9 high purity dimer): inhibition

VHSYYVWILQFYYKFRSYRWHYQIS [CD40L M1_82rd]
EC50 [1, 6]: 470 nM
EC50 [2, 5]: 10 nM

CC[C@H](C)[C@H](NC(=O)[C@H](CO)NC(=O)[C@H](Cc1ccccc1)NC(=O)[C@@H]1CCCN1C(=O)[C@@H]1CCCN1C(=O)[C@H](CO)NC(=O)[C@H](Cc1ccccc1)NC(=O)[C@H](Cc1ccccc1)NC(=O)[C@H](Cc1ccccc1)NC(=O)[C@H](CC(C)C)NC(=O)[C@H](CC(C)C)NC(=O)[C@@H](N)CC(C)C)C(=O)N[C@@H](Cc1ccccc1)C(=O)N[C@@H](CS)C(=O)N[C@@H](Cc1ccccc1)C(=O)N[C@@H](CO)C(=O)N[C@@H](CC(C)C)C(=O)N[C@H](C(=O)N[C@H](C(=O)N[C@@H](CC(C)C)C(=O)N[C@@H](CO)C(=O)O)[C@@H](C)O)[C@@H](C)O [CD40L M7_189] (H-LLLFFFSPPFSIFCFSLTTLS-OH)
EC50 ([2]; monomeric non-PEGylated (unmodified) base peptide; 50% reduction in control emission at 520-620 nm; read-out: EC50nmodified) CD40L/CD40-Fc/BAF617): 120 nM

I: H-C[AEEA]LLLFFFSPPFSIFSFSLTTLS / II: H-C[AEEA]HPFSIKNVFSIWNFFSVY (disulfide I:1-II:1) [Cys_M1_6S-Cys_M1_189S heterodimer]
inhibition of CD40L-induced CD86 expression on primary B-cells [1]: enhanced inhibition
inhibition of the interaction between CD40L and CD40 ([2]; listed as 6-189 dimer): enhanced inhibition
inhibition of the interaction between CD40L and CD40 ([2]; listed as 6-189 high purity dimer): inhibition

SKVRMQFDIINFPVNVGFLVFSH [CD40L M1_42rd]
EC50 [2, 5]: 16 nM

HSFVLFGVNVPFNIIDFQMRVKC (Base peptide) [CD40L M1_42]
EC50 [4]: 200 nM

LLYVKVICFFCMLVQYNNFQTYK (Base peptide) [CD40L M2_159]
EC50 [4]: 120 nM

B1: CD40L: CD40 ligand used to induce CD86 expression on primary B-cells (protein)
chain: ENSFEMQKGDQNPQIAAHVISEASSKTTSVLQWAEKGYYTMSNNLVTLENGKQLTVKRQGLYYIYAQVTFCSNREASSQAPFIASLCLKSPGRFERILLRAANTHSSAKPCGQQSIHLGGVFELQPGASVFVNVTDPSQVSHGTGFTSFGLLKL
EC50 ([1]; read-out: EC50 value of CD40L induction of CD86 expression, absence of a peptidyl inhibitor): ~9 nM
